Results on 17 compounds are retold here after US8853239B2, “Compounds, pharmaceutical compositions and uses thereof” (Boehringer Ingelheim International GmbH, priority 2011, dated 2014).

For orientation: pEC50 means −log10 of the EC50, conventionally taken in molar units.

pEC50: −log10 of the molar value.

The experiment addresses T1, human GPR119 (Homo sapiens, UniProt Q8TDV5).
T1 construct: expression vector for human GPR119 cDNA (Acc. No. NP_848566); expressed in transfected cells
T1 sequence (Q8TDV5 1-335): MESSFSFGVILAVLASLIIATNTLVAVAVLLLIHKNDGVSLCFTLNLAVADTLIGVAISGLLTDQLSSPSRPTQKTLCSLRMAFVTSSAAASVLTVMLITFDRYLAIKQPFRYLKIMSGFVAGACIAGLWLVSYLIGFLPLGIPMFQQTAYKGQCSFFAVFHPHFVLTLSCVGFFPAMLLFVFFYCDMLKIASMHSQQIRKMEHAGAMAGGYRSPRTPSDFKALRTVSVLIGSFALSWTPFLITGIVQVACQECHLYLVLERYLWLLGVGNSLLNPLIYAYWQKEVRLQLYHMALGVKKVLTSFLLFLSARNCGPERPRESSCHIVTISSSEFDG
As to the kind of experiment: AlphaScreen cAMP assay in MIN6 cells stably transfected with human GPR119. Format: cell-based. As to conditions: Min-6/hGPR119 cells, stimulation of intracellular cAMP, 45 minutes incubation at room temperature. Here is the method:
The compounds of formula I according to the invention modulate the activity of the G-protein-coupled receptor GPR119. The effect of the compounds on the activation of GPR119 and on the stimulation of intracellular cAMP concentration is determined using the AlphaScreen cAMP Assay Kit (Cat. No. #6760625R) made by PerkinElmer.
MIN6 cells [Miyazaki J et al. Endocrinology. 1990 July; 127(1):126-32] are stably transfected with an expression vector for human GPR119 cDNA (Acc. No. NP_848566). Min-6/hGPR119 cells are cultured in DMEM, 10% FBS, 50 μM β-mercaptoethanol, 0.3 mg/mL Geniticin, 2 mM GlutaMAX at 37° C. 5% CO2. For the assay, the cells are seeded in Optiplates (white, 384-well, 160W-barcoded, TC, sterile with lid, Cat. No. #6007688 (Perkin Elmer); 10000 cells/well; 50 μl). The plates covered with lids are then incubated for 24 hours at 37° C./5% CO2. After the medium is aspirated from the wells completely, 10 μl of the test compound are added, the compounds are diluted using stimulating buffer (140 mM NaCl, 3.6 mM KCl, 0.5 mM NaH2PO4, 0.5 mM MgSO4, 1.5 mM CaCl2, 10 mM Hepes, 5 mM NaHCO3; pH 7.4. 0.5 mM IBMX and 0.1% BSA, the final DMSO concentration is 1%). After 45 minutes incubation at room temperature (approx. 20° C.), the cAMP concentrations are determined using the AlphaScreen cAMP Assay Kit (Cat. No. #6760625R from PerkinElmer).
For `CC(C)(F)CN1CCC([C@@]2(C)Cc3cc(C4=CCN(S(C)(=O)=O)CC4)ncc3O2)CC1` [Example 16, (R)-2-[1-(2-Fluoro-2-methyl-propyl)-piperidin-4-yl]-5-(1-methanesulfonyl-1,2,3,6-tetrahydro-pyridin-4-yl)-2-methyl-2,3-dihydro-furo[2,3-c]pyridine], the negative logarithm of the EC50 (pEC50) was 7.60. On to `CS(=O)(=O)Cc1ccc(-c2cc3c(cn2)OC(C2CCN(CC4(C(F)(F)F)CC4)CC2)C3)cc1` (centres unmarked) [Example 8, 5-(4-Methanesulfonylmethyl-phenyl)-2-{1-[(1-trifluoromethyl-cyclopropyl)methyl]-piperidin-4-yl}-2,3-dihydrofuro[2,3-c]pyridine], for which the negative-log EC50 (pEC50) is 7.46.

In turn, `CS(=O)(=O)N1CC=C(c2cc3c(cn2)OC(C2CCN(CC4(C(F)(F)F)CC4)CC2)C3)CC1` (racemic) [Example 6, 5-(1-Methanesulfonyl-1,2,3,6-tetrahydro-pyridin-4-yl)-2-{1-[(1-trifluoromethyl-cyclopropyl)methyl]-piperidin-4-yl}-2,3-dihydro-furo[2,3-c]pyridine] showed a pEC50 of 7.68. Compared with the last compound, the pEC50 is 0.22 log units higher.

`CC(C)(F)CN1CCC(C2Cc3cc(C4CCN(S(C)(=O)=O)CC4)ncc3O2)CC1` (centres unmarked) [Example 5, 2-[1-(2-Fluoro-2-methyl-propyl)-piperidin-4-yl]-5-(1-methanesulfonyl-piperidin-4-yl)-2,3-dihydro-furo[2,3-c]pyridine] gave a pEC50 of 6.18. The compound `CC(C)(F)CN1CCC(C2Cc3cc(C4=CCN(S(C)(=O)=O)CC4)ncc3O2)CC1` (centres unmarked) [Example 3, 2-[1-(2-Fluoro-2-methyl-propyl)-piperidin-4-yl]-5-(1-methanesulfonyl-1,2,3,6-tetrahydro-pyridin-4-yl)-2,3-dihydro-furo[2,3-c]pyridine] had a pEC50 of 7.44. In turn, `CC(C)(F)CN1CCC(C2Cc3cc(-c4ccc(CS(C)(=O)=O)cc4F)ncc3O2)CC1` (centres unmarked) [Example 9, 5-(2-Fluoro-4-methanesulfonylmethyl-phenyl)-2-[1-(2-fluoro-2-methyl-propyl)-piperidin-4-yl]-2,3-dihydro-furo[2,3-c]pyridine] gave a pEC50 of 7.00. The result for `CC(C)(F)CN1CCC([C@@]2(C)Cc3cc(-c4ccc(S(C)(=O)=O)cc4)ncc3O2)CC1` [Example 10, (R)-2-[1-(2-Fluoro-2-methyl-propyl)-piperidin-4-yl]-5-(4-methanesulfonyl-phenyl)-2-methyl-2,3-dihydro-furo[2,3-c]pyridine] reads 7.18; that for `CC(C)(F)CN1CCC([C@H]2Cc3cc(-c4ccc(S(C)(=O)=O)cc4)ncc3O2)CC1` [Example 19, (R)-2-[1-(2-Fluoro-2-methyl-propyl)-piperidin-4-yl]-5-(4-methanesulfonyl-phenyl)-2,3-dihydro-furo[2,3-c]pyridine], 7.08; that for `C[C@]1(C2CCN(CC3(C(F)(F)F)CC3)CC2)Cc2cc(C3=CCN(S(C)(=O)=O)CC3)ncc2O1` [Example 13, (R)-5-(1-Methanesulfonyl-1,2,3,6-tetrahydro-pyridin-4-yl)-2-methyl-2-{1-[(1-trifluoromethyl-cyclopropyl)methyl]-piperidin-4-yl}-2,3-dihydro-furo[2,3-c]pyridine], 8.30. Compound `CS(=O)(=O)Cc1ccc(-c2cc3c(cn2)OC(C2CCN(CC4(C(F)(F)F)CC4)CC2)C3)c(F)c1` (centres unmarked) [Example 7, 5-(2-Fluoro-4-methanesulfonylmethyl-phenyl)-2-{1-[(1-trifluoromethyl-cyclopropyl)methyl]-piperidin-4-yl}-2,3-dihydrofuro[2,3-c]pyridine] showed a pEC50 of 7.66. The result for `CC(C)(F)CN1CCC(C2Cc3cc(-c4ccc(S(C)(=O)=O)cc4)ccc3O2)CC1` (centres unmarked) [Example 1, 1-(2-Fluoro-2-methyl-propyl)-4-[5-(4-methanesulfonyl-phenyl)-2,3-dihydro-benzofuran-2-yl]-piperidine] reads 6.38; that for `CC(C)(F)CN1CCC([C@H]2Cc3cc(C4=CCN(S(C)(=O)=O)CC4)ncc3O2)CC1` [Example 12, (R)-2-[1-(2-Fluoro-2-methyl-propyl)-piperidin-4-yl]-5-(1-methanesulfonyl-1,2,3,6-tetrahydro-pyridin-4-yl)-2,3-dihydro-furo[2,3-c]pyridine], 7.34; that for `CS(=O)(=O)N1CC=C(c2cc3c(cn2)O[C@@H](C2CCN(CC4(C(F)(F)F)CC4)CC2)C3)CC1` [Example 14, (R)-5-(1-Methanesulfonyl-1,2,3,6-tetrahydro-pyridin-4-yl)-2-{1-[(1-trifluoromethyl-cyclopropyl)methyl]-piperidin-4-yl}-2,3-dihydro-furo[2,3-c]pyridine], 8.70. Then `C[C@]1(C2CCN(CC3(C(F)(F)F)CC3)CC2)Cc2cc(-c3ccc(S(C)(=O)=O)cc3)ncc2O1` [Example 18], with 7.57; and `CC(C)(F)CN1CCC(C2Cc3cc(-c4ccc(CS(C)(=O)=O)cc4)ncc3O2)CC1` (centres unmarked) [Example 4, 2-[1-(2-Fluoro-2-methyl-propyl)-piperidin-4-yl]-5-(4-methanesulfonylmethyl-phenyl)-2,3-dihydro-furo[2,3-c]pyridine], with 6.67.

`CC(C)(F)CN1CCC([C@@H]2Cc3cc(C4=CCN(S(C)(=O)=O)CC4)ncc3O2)CC1` [Example 11, (S)-2-[1-(2-Fluoro-2-methyl-propyl)-piperidin-4-yl]-5-(1-methanesulfonyl-1,2,3,6-tetrahydro-pyridin-4-yl)-2,3-dihydro-furo[2,3-c]pyridine] showed a negative-log EC50 (pEC50) of 6.07. This pEC50 lies 0.60 log units lower than the previous one. As for `CS(=O)(=O)N1CC=C(c2cc3c(cn2)O[C@H](C2CCN(CC4(C(F)(F)F)CC4)CC2)C3)CC1` [Example 15, (S)-5-(1-Methanesulfonyl-1,2,3,6-tetrahydro-pyridin-4-yl)-2-{1-[(1-trifluoromethyl-cyclopropyl)methyl]-piperidin-4-yl}-2,3-dihydro-furo[2,3-c]pyridine], the pEC50 was 7.11. Against the preceding compound, the pEC50 is 1.04 log units higher.
